Measurements taken from the CheMixHub viscosity set.
Several values for one entry are separate records, joined by “and”; a condition that tells them apart may be missing. Identical values can stand only once.

Assay: xn = mol fraction of the nth substance listed

c1ccc2ccccc2c1 + ClC(Cl)(Cl)Cl
viscosity [mPa·s], 101 kPa
Details | 303.15 K | 308.15 K | 313.15 K | 318.15 K | 323.15 K
x1 = 0.2515 | 1.085 | 1 | 0.9335 | 0.8708 | 0.8138
x1 = 0.4038 | – | – | 1.109 | 1.036 | 0.9672

COc1ccccc1 + ClCCCl
viscosity [mPa·s]
Details | 298.15 K | 303.15 K | 308.15 K | 313.15 K
101 kPa, x1 = 0.0971 | 0.8095 | 0.7615 | 0.7135 | 0.6712
101 kPa, x1 = 0.1961 | 0.8125 | 0.7644 | 0.719 | 0.6736
101 kPa, x1 = 0.2958 | 0.8228 | 0.7712 | 0.7246 | 0.6785
101 kPa, x1 = 0.3963 | 0.8354 | 0.7823 | 0.7333 | 0.6881
101 kPa, x1 = 0.4918 | 0.8519 | 0.7983 | 0.7466 | 0.7004
101 kPa, x1 = 0.5946 | 0.8754 | 0.8183 | 0.7639 | 0.715
101 kPa, x1 = 0.6933 | 0.9012 | 0.8399 | 0.7821 | 0.7319
101 kPa, x1 = 0.7944 | 0.9299 | 0.8693 | 0.8076 | 0.7519
101 kPa, x1 = 0.8972 | 0.9672 | 0.8983 | 0.834 | 0.7759
101.3 kPa, x1 = 0.0479 | – | 0.708 | – | –
101.3 kPa, x1 = 0.2944 | – | 0.726 | – | –
101.3 kPa, x1 = 0.3833 | – | 0.74 | – | –
101.3 kPa, x1 = 0.5479 | – | 0.776 | – | –
101.3 kPa, x1 = 0.6192 | – | 0.785 | – | –
101.3 kPa, x1 = 0.6717 | – | 0.797 | – | –
101.3 kPa, x1 = 0.9751 | – | 0.896 | – | –

c1ccc2ccccc2c1 + Clc1ccccc1
viscosity [mPa·s], 101 kPa
Details | 308.15 K | 313.15 K | 318.15 K | 323.15 K
x1 = 0.3525 | 0.962 | 0.9041 | 0.8436 | 0.7981
x1 = 0.4003 | 1.011 | 0.945 | 0.887 | 0.832

c1ccc2ccccc2c1 + Nc1ccccc1
viscosity [mPa·s]
Details | 308.15 K | 313.15 K | 318.15 K | 323.15 K
101 kPa, x1 = 0.2092 | 2.365 | 2.092 | 1.868 | 1.687
101 kPa, x1 = 0.3036 | 2.224 | 1.988 | 1.783 | 1.616
101.33 kPa, x1 = 0.209 | 2.365 | 2.092 | 1.868 | 1.687
101.33 kPa, x1 = 0.2092 | 2.365 | – | – | –
101.33 kPa, x1 = 0.2497 | 2.291 | – | – | –
101.33 kPa, x1 = 0.3 | 2.224 | 1.988 | 1.783 | 1.616
101.33 kPa, x1 = 0.3036 | 2.224 | – | – | –

CC(C)CC(=O)O + O
viscosity [mPa·s], 101.33 kPa
Details | 293.15 K | 313.15 K
x1 = 0.0036 | 1.106 | 0.724
x1 = 0.0073 | 1.161 | 0.742

CCOCCn1cc[n+](C)c1.C[C@@H](O)[C@H](N)C(=O)[O-] + O
Details | viscosity [mPa·s]
298.15 K, 100 kPa, x2 = 0.492 | 991.4

CC[C@H](C)[C@H](N)C(=O)O + O
viscosity, 101 kPa
Details | 293.15 K | 298.15 K | 303.15 K | 308.15 K | 313.15 K | 318.15 K
x1 = 0.00045 | 1.008 mPa·s | 0.896 mPa·s and 0.896 mPa·s | 0.8028 mPa·s and 0.8027 mPa·s | 0.7244 mPa·s and 0.7243 mPa·s | 0.6578 mPa·s and 0.6577 mPa·s | 0.6022 mPa·s and 0.602 mPa·s
x1 = 0.0009 | 1.019 mPa·s | 0.9057 mPa·s and 0.9059 mPa·s | 0.8118 mPa·s and 0.8118 mPa·s | 0.733 mPa·s and 0.7328 mPa·s | 0.6658 mPa·s and 0.6657 mPa·s | 0.6098 mPa·s and 0.6096 mPa·s
x1 = 0.00135 | 1.03 mPa·s | 0.9164 mPa·s and 0.9165 mPa·s | 0.8217 mPa·s and 0.8217 mPa·s | 0.7422 mPa·s and 0.742 mPa·s | 0.6745 mPa·s and 0.6744 mPa·s | 0.6181 mPa·s and 0.6178 mPa·s
x1 = 0.0018 | 1.042 mPa·s | 0.9273 mPa·s and 0.9275 mPa·s | 0.8319 mPa·s and 0.8318 mPa·s | 0.7516 mPa·s and 0.7515 mPa·s | 0.6834 mPa·s and 0.6832 mPa·s | 0.6265 mPa·s and 0.6261 mPa·s
x1 = 0.002245 | 1.054 mPa·s | 0.9386 mPa·s and 0.9387 mPa·s | 0.8423 mPa·s and 0.8422 mPa·s | 0.7613 mPa·s and 0.7612 mPa·s | 0.6925 mPa·s and 0.6923 mPa·s | 0.6351 mPa·s and 0.6347 mPa·s
x1 = 0.002695 | 1.067 mPa·s | 0.9502 mPa·s and 0.9502 mPa·s | 0.8531 mPa·s and 0.853 mPa·s | 0.7714 mPa·s and 0.7713 mPa·s | 0.702 mPa·s and 0.7018 mPa·s | 0.6438 mPa·s and 0.6434 mPa·s

CNC(N)=O + O
viscosity [mPa·s], 101 kPa
Details | x1 = 9.02e-05 | x1 = 0.00018 | x1 = 0.00027 | x1 = 0.00036 | x1 = 0.0005402 | x1 = 0.00108 | x1 = 0.001799 | x1 = 0.004484
293.15 K | 1.003 | 1.01 | 1.002 | 1.007 | 1.008 | 1.017 | 1.013 | 1.036
298.15 K | 0.8881 | 0.8936 | 0.8933 | 0.8922 | 0.8992 | 0.9009 | 0.8963 | 0.9188
303.15 K | – | 0.7986 | 0.7953 | 0.798 | 0.8003 | 0.8032 | 0.8075 | 0.8214

O=C(O)C(O)C(O)C(=O)O (stereo unspecified) + O
viscosity, 100 kPa
Details | 298.15 K | 303.15 K | 308.15 K | 313.15 K | 318.15 K
x1 = 0.003486 | 0.9322 mPa·s and 0.9322 mPa·s | 0.8367 mPa·s and 0.8367 mPa·s | 0.7533 mPa·s and 0.7533 mPa·s | 0.6829 mPa·s and 0.6829 mPa·s | 0.6209 mPa·s and 0.6209 mPa·s
x1 = 0.006751 | 0.9765 mPa·s and 0.9765 mPa·s | 0.8735 mPa·s and 0.8735 mPa·s | 0.7864 mPa·s and 0.7864 mPa·s | 0.7098 mPa·s and 0.7098 mPa·s | 0.6435 mPa·s and 0.6435 mPa·s
x1 = 0.009818 | 1.038 mPa·s and 1.038 mPa·s | 0.9206 mPa·s and 0.9206 mPa·s | 0.8235 mPa·s and 0.8235 mPa·s | 0.7408 mPa·s and 0.7408 mPa·s | 0.6707 mPa·s and 0.6707 mPa·s
x1 = 0.0127 | 1.088 mPa·s and 1.088 mPa·s | 0.9696 mPa·s and 0.9696 mPa·s | 0.8645 mPa·s and 0.8645 mPa·s | 0.7756 mPa·s and 0.7756 mPa·s | 0.6996 mPa·s and 0.6996 mPa·s

O=[N+]([O-])[O-].O=[N+]([O-])[O-].O=[N+]([O-])[O-].[Ce+3] + O
viscosity [mPa·s], 101.3 kPa
Details | x1 = 0.009125 | x1 = 0.01824 | x1 = 0.02724 | x1 = 0.03472 | x1 = 0.05339 | x1 = 0.06671 | x1 = 0.0744
293.15 K | 1.312 | 1.718 | 2.423 | 3.281 | 6.899 | 13.02 | 19.48
298.15 K | 1.174 | 1.529 | 2.169 | 2.911 | 5.937 | 10.99 | 16.06
308.15 K | 0.9509 | 1.249 | 1.734 | 2.299 | 4.599 | 8.055 | 11.34

O=[N+]([O-])[O-].O=[N+]([O-])[O-].[Mg+2] + O
viscosity [mPa·s], 100 kPa
Details | x1 = 0.01 | x1 = 0.03 | x1 = 0.05 | x1 = 0.07
298.15 K | 1.138 | 1.6 | 2.409 | 4.609
323.15 K | 0.707 | 0.9853 | 1.479 | 2.709
